Reference: US9611249B2, “1H-indazole-3-carboxamide compounds as glycogen synthase kinase 3 beta inhibitors” (AZIENDE CHIMICHE RIUNITE ANGELINI FRANCESCO A.C.R.A.F. …, priority 2012, dated 2017)
pIC50: −log10 of the molar value.

Key:
human GSK-3β = human GSK-3β (Homo sapiens (Human), UniProt P49841); experiment: GSK-3β LanthaScreen TR-FRET Eu Kinase binding and displacement assay; conditions: compounds 16 to 41, LanthaScreen TR-FRET binding and displacement assay, five concentrations 100 μM to 10 nM
Description: In a second assay, the same compounds were assayed at five concentrations ranging from 100 μM to 10 nM with ten-fold dilutions in duplicate. Compounds 1 to 15 were tested using the same first assay, compounds 16 to 41 were tested in another assay based on the binding and displacement of AlexaFluor® 647 labeled, ATP-competitive Kinase inhibitor scaffold using LanthaScreen™ TR-FRET technology Eu Kinase assay packet according to manufacturer's instruction (Life Technologies, Italy).
The IC50 values (concentration causing a half maximal inhibition of control specific activity), reported in table 4, were determined by non-linear regression analysis of the inhibition curves generated with mean replicate values using Hill equation curve fitting.

IRK (h) (InsR) = IRK (h) (InsR) (Homo sapiens (Human), UniProt P06213); experiment: Kinase selectivity panel: IRK (h) (InsR); type: biochemical; conditions: 10 μM in duplicate, read-out: % inhibition of control values
Description: (§1) (a) Compounds 1 and 2 were tested against a panel of 60 kinases in order to assess their selectivity. The assays were chosen taking into consideration the diversity of assay families.
(§2) Tested kinases were representative of following kinase sub-families: • protein-serine/threonine kinases; • protein-tyrosine kinases; • other kinases; and • atypical kinases.
(§3) Human recombinant kinases were incubated in the presence of specific peptide substrates plus ATP for different times (10, 15, 30, 60 or 90 minutes) at 22° C. Phosphorylated substrate was detected by LANCE or HTRF technology (CISBIO, MA, USA). The compounds were tested at 10 μM in duplicate.
(§4) The results are expressed as a percentage of inhibition of control specific activity obtained in the presence of the test compounds and are reported in the following Table 5.
(§5) (b) Compounds 3, 8, 29 and 31 were tested against the same panel of 60 kinases under the same conditions described above for compounds 1 and 2.
(§6) The results are expressed as a percent of inhibition of control specific activity obtained in the presence of the test compounds and are reported in the following Table 6.

TRKA (h) = TRKA (h) (Homo sapiens (Human), UniProt P04629); experiment: Kinase selectivity panel: TRKA (h); type: biochemical; conditions: 10 μM in duplicate, read-out: % inhibition of control values
Description: as §1, §2, §3, §4, §5, §6

Src kinase (h) = Src kinase (h) (Homo sapiens (Human), UniProt P12931); experiment: Kinase selectivity panel: Src kinase (h); type: biochemical; conditions: 10 μM in duplicate, read-out: % inhibition of control values
Description: as §1, §2, §3, §4, §5, §6

GSK3beta (h) = GSK3beta (h) (Homo sapiens (Human), UniProt P49841); experiment: Kinase selectivity panel: GSK3beta (h); type: biochemical; conditions: for inhibition at 10 µM: GSK3beta (h), 10 μM in duplicate, read-out: % inhibition of control values; for selectivity for GSK-3β compared to the other kinases of the panel: panel of 60 kinases, 10 μM, conclusion in words
Description: as §1, §2, §3, §4, §6

DYRK1a (h) = DYRK1a (h) (Homo sapiens (Human), UniProt Q13627); experiment: Kinase selectivity panel: DYRK1a (h); type: biochemical; conditions: 10 μM in duplicate, read-out: % inhibition of control values
Description: as §1, §2, §3, §4, §5, §6

PCTAIRE1 kinase (h) = PCTAIRE1 kinase (h) (Homo sapiens (Human), UniProt Q00536); experiment: Kinase selectivity panel: PCTAIRE1 kinase (h); type: biochemical; conditions: 10 μM in duplicate, read-out: % inhibition of control values
Description: as §1, §2, §3, §4, §5, §6

CDC2/CDK1 (h) (cycB) = CDC2/CDK1 (h) (cycB) (Homo sapiens (Human), UniProt P06493); experiment: Kinase selectivity panel: CDC2/CDK1 (h) (cycB); type: biochemical; conditions: 10 μM in duplicate, read-out: % inhibition of control values
Description: as §1, §2, §3, §4, §5, §6

CDK2 (h) (cycA) = CDK2 (h) (cycA) (Homo sapiens (Human), UniProt P24941); experiment: Kinase selectivity panel: CDK2 (h) (cycA); type: biochemical; conditions: 10 μM in duplicate, read-out: % inhibition of control values
Description: as §1, §2, §3, §4, §5, §6

CDK5/p35 (h) = CDK5/p35 (h) (Homo sapiens (Human), UniProt Q00535); experiment: Kinase selectivity panel: CDK5/p35 (h); type: biochemical; conditions: 10 μM in duplicate, read-out: % inhibition of control values
Description: as §1, §2, §3, §4, §5, §6

ERK1 (h) = ERK1 (h) (Homo sapiens (Human), UniProt P27361); experiment: Kinase selectivity panel: ERK1 (h); type: biochemical; conditions: 10 μM in duplicate, read-out: % inhibition of control values
Description: as §1, §2, §3, §4, §5, §6

ERK2 (h) (P42mapk) = ERK2 (h) (P42mapk) (Homo sapiens (Human), UniProt P28482); experiment: Kinase selectivity panel: ERK2 (h) (P42mapk); type: biochemical; conditions: 10 μM in duplicate, read-out: % inhibition of control values
Description: as §1, §2, §3, §4, §5, §6

smMLCK (h) (MYLK) = smMLCK (h) (MYLK) (Homo sapiens (Human), UniProt Q15746); experiment: Kinase selectivity panel: smMLCK (h) (MYLK); type: biochemical; conditions: 10 μM in duplicate, read-out: % inhibition of control values
Description: as §1, §2, §3, §4, §5, §6

HGK (h) (MAP4K4) = HGK (h) (MAP4K4) (Homo sapiens (Human), UniProt O95819); experiment: Kinase selectivity panel: HGK (h) (MAP4K4); type: biochemical; conditions: 10 μM in duplicate, read-out: % inhibition of control values
Description: as §1, §2, §3, §4, §5, §6

MEK1/MAP2K1 (h) = MEK1/MAP2K1 (h) (Homo sapiens (Human), UniProt Q02750); experiment: Kinase selectivity panel: MEK1/MAP2K1 (h); type: biochemical; conditions: 10 μM in duplicate, read-out: % inhibition of control values
Description: as §1, §2, §3, §4, §5, §6

TAOK2 (TAO1) (h) = TAOK2 (TAO1) (h) (Homo sapiens (Human), UniProt Q9UL54); experiment: Kinase selectivity panel: TAOK2 (TAO1) (h); type: biochemical; conditions: 10 μM in duplicate, read-out: % inhibition of control values
Description: as §1, §2, §3, §4, §5, §6

NEK1 (h) = NEK1 (h) (Homo sapiens (Human), UniProt Q96PY6); experiment: Kinase selectivity panel: NEK1 (h); type: biochemical; conditions: 10 μM in duplicate, read-out: % inhibition of control values
Description: as §1, §2, §3, §4, §5, §6

Sequence of GSK3beta (h) (P49841 whole entry): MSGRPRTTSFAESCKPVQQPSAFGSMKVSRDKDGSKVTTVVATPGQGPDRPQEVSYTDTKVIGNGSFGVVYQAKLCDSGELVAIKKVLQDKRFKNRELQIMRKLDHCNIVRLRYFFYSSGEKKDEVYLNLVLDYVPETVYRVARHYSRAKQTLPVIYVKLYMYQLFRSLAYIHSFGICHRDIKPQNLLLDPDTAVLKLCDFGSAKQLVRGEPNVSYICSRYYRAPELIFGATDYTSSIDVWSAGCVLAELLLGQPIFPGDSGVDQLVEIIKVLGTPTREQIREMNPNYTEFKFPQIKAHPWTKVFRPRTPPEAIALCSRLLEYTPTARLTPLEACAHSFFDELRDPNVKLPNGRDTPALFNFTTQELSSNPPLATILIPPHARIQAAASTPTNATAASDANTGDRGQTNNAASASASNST
Sequence of MEK1/MAP2K1 (h) (Q02750 whole entry): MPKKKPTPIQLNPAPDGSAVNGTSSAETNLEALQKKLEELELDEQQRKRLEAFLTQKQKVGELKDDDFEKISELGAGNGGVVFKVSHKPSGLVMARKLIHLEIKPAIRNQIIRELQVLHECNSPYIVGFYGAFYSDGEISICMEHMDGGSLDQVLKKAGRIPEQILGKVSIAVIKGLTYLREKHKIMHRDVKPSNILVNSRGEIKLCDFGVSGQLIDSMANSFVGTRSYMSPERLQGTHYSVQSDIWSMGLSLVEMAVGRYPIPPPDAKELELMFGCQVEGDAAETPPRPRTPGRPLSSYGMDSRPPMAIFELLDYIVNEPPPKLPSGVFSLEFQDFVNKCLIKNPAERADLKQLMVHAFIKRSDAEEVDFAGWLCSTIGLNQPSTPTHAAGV
Sequence of TRKA (h) (P04629 33-796): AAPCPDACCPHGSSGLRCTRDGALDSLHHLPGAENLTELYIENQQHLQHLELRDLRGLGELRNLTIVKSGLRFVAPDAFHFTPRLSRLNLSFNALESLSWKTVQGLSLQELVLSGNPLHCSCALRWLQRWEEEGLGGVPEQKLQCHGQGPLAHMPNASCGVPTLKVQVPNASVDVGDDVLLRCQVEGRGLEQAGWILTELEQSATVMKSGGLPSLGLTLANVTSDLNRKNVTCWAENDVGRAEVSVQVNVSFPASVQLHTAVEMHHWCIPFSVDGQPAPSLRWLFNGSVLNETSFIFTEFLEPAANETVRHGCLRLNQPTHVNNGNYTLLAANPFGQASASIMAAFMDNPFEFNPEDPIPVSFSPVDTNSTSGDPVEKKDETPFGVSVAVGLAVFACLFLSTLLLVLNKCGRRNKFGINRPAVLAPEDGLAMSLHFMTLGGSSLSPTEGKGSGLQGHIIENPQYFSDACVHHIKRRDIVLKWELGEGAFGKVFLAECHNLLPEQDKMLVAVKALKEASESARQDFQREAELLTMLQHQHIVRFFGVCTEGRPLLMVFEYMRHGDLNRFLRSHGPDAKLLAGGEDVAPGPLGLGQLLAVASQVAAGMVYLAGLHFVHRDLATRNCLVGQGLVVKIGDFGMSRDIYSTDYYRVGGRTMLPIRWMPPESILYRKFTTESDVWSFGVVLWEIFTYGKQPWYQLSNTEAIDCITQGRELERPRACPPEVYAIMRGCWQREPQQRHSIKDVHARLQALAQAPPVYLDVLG
Sequence of PCTAIRE1 kinase (h) (Q00536 whole entry): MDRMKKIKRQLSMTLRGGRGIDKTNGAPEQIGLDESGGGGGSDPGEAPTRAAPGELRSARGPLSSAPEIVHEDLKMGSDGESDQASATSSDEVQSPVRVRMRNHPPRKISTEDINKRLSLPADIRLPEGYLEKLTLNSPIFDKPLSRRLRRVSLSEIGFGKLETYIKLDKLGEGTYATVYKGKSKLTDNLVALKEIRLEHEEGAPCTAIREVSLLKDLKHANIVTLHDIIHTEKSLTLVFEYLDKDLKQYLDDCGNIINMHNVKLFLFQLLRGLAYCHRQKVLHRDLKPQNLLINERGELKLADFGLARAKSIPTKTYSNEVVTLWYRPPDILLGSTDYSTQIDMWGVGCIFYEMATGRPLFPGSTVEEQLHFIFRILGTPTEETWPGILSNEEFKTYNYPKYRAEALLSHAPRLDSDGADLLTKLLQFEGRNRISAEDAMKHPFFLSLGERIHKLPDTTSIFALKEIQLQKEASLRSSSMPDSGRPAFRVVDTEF
Sequence of human GSK-3β (P49841 whole entry): as the sequence (P49841 whole entry) above
Sequence of HGK (h) (MAP4K4) (O95819 whole entry): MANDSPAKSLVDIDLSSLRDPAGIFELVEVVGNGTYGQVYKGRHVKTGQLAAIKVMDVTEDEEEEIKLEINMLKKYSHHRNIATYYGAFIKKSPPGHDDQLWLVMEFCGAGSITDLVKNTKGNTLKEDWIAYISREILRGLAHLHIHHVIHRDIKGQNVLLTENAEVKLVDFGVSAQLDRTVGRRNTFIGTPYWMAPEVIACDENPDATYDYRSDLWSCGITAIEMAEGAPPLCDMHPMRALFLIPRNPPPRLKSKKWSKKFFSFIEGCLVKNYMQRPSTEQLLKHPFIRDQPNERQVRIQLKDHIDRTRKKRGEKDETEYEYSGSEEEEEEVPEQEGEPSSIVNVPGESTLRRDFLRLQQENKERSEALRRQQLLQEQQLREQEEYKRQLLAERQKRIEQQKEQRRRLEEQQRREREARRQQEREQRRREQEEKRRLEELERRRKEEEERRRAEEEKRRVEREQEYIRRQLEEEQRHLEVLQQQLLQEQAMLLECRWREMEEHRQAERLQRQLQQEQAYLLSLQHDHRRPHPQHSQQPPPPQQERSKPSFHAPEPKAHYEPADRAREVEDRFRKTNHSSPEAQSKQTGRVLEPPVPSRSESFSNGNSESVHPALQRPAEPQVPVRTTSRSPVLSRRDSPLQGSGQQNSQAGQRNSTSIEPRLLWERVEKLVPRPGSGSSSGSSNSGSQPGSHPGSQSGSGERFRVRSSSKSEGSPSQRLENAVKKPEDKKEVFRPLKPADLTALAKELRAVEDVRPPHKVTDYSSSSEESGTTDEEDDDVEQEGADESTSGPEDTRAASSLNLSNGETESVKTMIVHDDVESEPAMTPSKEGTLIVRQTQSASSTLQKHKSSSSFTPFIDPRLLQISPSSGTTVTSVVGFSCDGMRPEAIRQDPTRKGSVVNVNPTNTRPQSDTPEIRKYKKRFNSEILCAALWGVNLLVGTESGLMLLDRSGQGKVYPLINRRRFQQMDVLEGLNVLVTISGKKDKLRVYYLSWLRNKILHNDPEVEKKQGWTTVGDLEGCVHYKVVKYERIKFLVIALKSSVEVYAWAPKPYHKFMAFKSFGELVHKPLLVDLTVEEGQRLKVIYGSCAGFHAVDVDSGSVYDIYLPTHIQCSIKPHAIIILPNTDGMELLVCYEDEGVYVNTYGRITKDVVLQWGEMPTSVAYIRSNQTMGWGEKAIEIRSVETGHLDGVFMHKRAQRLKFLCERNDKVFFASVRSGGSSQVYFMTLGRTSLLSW
Sequence of TAOK2 (TAO1) (h) (Q9UL54 whole entry): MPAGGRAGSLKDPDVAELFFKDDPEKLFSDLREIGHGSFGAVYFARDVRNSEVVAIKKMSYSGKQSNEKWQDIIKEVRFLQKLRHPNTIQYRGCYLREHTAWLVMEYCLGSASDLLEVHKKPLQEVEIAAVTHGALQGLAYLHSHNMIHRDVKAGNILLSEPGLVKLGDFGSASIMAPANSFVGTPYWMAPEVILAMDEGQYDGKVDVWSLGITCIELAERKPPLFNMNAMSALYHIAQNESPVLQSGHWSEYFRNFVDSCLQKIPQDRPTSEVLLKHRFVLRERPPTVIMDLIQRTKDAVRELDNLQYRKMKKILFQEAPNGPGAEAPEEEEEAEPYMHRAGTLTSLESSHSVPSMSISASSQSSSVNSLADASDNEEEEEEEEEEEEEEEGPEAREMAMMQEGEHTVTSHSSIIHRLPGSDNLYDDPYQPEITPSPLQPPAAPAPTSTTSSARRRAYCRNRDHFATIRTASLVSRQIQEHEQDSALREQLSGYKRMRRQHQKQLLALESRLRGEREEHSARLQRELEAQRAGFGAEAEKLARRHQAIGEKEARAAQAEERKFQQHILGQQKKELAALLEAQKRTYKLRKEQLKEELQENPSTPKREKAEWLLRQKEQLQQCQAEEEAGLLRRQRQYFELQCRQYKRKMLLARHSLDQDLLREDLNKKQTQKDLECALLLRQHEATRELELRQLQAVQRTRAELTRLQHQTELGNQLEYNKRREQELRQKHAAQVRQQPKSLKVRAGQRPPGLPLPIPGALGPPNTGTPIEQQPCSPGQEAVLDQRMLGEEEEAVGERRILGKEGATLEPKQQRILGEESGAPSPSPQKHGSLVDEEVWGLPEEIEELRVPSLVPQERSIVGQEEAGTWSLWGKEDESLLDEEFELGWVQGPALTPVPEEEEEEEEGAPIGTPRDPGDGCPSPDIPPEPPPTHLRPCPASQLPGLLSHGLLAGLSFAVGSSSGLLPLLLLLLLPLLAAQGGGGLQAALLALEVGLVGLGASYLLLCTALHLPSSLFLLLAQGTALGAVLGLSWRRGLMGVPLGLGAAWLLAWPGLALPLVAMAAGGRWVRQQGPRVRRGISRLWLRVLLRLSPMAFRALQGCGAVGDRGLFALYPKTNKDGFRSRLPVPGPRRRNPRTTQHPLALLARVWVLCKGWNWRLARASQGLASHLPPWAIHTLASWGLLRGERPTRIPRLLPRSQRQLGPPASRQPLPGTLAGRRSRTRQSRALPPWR
Sequence of ERK2 (h) (P42mapk) (P28482 whole entry): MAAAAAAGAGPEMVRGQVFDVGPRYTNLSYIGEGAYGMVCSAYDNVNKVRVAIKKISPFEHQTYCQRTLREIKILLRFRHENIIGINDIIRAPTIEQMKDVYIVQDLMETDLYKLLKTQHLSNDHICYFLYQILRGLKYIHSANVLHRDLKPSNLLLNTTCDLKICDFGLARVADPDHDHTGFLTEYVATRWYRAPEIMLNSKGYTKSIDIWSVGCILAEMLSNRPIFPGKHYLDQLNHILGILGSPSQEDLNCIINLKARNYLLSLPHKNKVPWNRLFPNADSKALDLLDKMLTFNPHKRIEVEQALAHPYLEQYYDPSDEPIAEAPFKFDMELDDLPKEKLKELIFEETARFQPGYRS

Compound	pIC50 (human GSK-3β)	inhibition at 10 µM (IRK (h) (InsR)) [%]	inhibition at 10 µM (TRKA (h)) [%]	inhibition at 10 µM (Src kinase (h)) [%]	inhibition at 10 µM (GSK3beta (h)) [%]	selectivity for GSK-3β compared to the other kinases of the panel (GSK3beta (h))	inhibition at 10 µM (DYRK1a (h)) [%]	inhibition at 10 µM (PCTAIRE1 kinase (h)) [%]	inhibition at 10 µM (CDC2/CDK1 (h) (cycB)) [%]	inhibition at 10 µM (CDK2 (h) (cycA)) [%]	inhibition at 10 µM (CDK5/p35 (h)) [%]	inhibition at 10 µM (ERK1 (h)) [%]	inhibition at 10 µM (ERK2 (h) (P42mapk)) [%]	inhibition at 10 µM (smMLCK (h) (MYLK)) [%]	inhibition at 10 µM (HGK (h) (MAP4K4)) [%]	inhibition at 10 µM (MEK1/MAP2K1 (h)) [%]	inhibition at 10 µM (TAOK2 (TAO1) (h)) [%]	inhibition at 10 µM (NEK1 (h)) [%]
O=C(O)CN1CCC(CNC(=O)c2n[nH]c3ccc(-c4cccc(F)c4F)cc23)CC1 [Compound 29, {4-[({[5-(2,3-difluorophenyl)-1H-indazol-3-yl]carbonyl}amino)methyl]piperidin-1-yl}acetic acid]	7.52	0	3	0	100	good affinity to GSK-3β when compared to most of other kinases of the same family	100	49	80	77	77	61	67	17	71	75	61	9
CCc1ccc2[nH]nc(C(=O)NCC3CCN(CC(=O)O)CC3)c2c1 [Compound 31, [4-({[(5-ethyl-1H-indazol-3-yl)carbonyl]amino}methyl)piperidin-1-yl]acetic acid]	6.02	0	0	9	89	good selectivity profile	77	27	10	35	16	1	9	1	10	9	9	0
